Experimental findings from ChEMBL document CHEMBL1157288, “Isolation and structure assignment of an iminotetrasaccharide from a cultured filamentous cyanobacterium Anabaena sp” (J Nat Prod, 2006) are described below.

This test relates to Escherichia coli. As to the kind of experiment: Inhibition of Escherichia coli beta-glucuronidase at 560 uM.

In the case of `CO[C@@H]1[C@@H](O)[C@@H](O[C@@H]2[C@@H]([C@H](C)O)NC[C@@H]2O)O[C@H](CO)[C@H]1O[C@H]1OC[C@H](OC(C)=O)[C@H](OC(C)=O)[C@H]1O[C@H]1O[C@H](C(=O)O)[C@@H](O)[C@H](O)[C@H]1O`, the inhibition (as a rule, the change of the read-out against control, counted positive when it falls) was found to be 50%.
